Laboratory results reported in patent publication US6001849A, “Furopyridine, thienopyridine pyrrolopyridine useful in controlling chemical synaptic transmission” (Abbott Laboratories, priority 1997, dated 1999).
Structures can show the parent of a compound that is named as a salt.

Molecular target: neuronal nicotinic acetylcholine receptors
Assay: [3H]-cytisine ligand-receptor binding assay (crude synaptic membranes from whole rat brain)
Conditions: Table 1; [3H]-cytisine 1.25 nM, 4° C., 60 min; Ki by Cheng and Prusoff; read-out: [^3 H]-Cyt Binding
Experimental: For the purpose of identifying compounds as nicotinic acetylcholinergic agents which are capable of interacting with neuronal nicotinic acetylcholine receptors in the brain, a ligand-receptor binding assay was carried out as the initial screen. Compounds of the present invention were effective at interacting with neuronal nicotinic acetylcholine receptors as assayed for their ability to displace radioligand from neuronal nicotinic acetylcholine receptors labeled with [^3 H]-cytisine ([^3 H]-CYT).
A. Protocol For Determination of Nicotinic Acetylcholine Receptor Binding Potencies of Ligands
Binding of [^3 H]-CYT to nicotinic acetylcholine receptors was accomplished using crude synaptic membrane preparations from whole rat brain (Pabreza et al., Molecular Pharmacol., 1990, 39:9). Washed membranes were stored at -80° C. prior to use. Frozen aliquots were slowly thawed and resuspended in 20 volumes of buffer (containing: 120 mM NaCl, 5 mM KCl, 2 mM MgCl2, 2 mM CaCl2 and 50 mM Tris-Cl, pH 7.4 @4° C.). After centrifuging at 20,000×g for 15 minutes, the pellets were resuspended in 30 volumes of buffer. Homogenate (containing 125-150 μg protein) was added to triplicate tubes containing concentrations of test compound and [^3 H]-CYT (1.25 nM) in a final volume of 500 μL. Samples were incubated for 60 minutes at 4° C., then rapidly filtered through Whatman GF/B filters presoaked in 0.5% polyethylimine using 3×4 mL of ice-cold buffer. The filters were counted in 4 mL of Ecolume® (ICN). Nonspecific binding was determined in the presence of 10 μM (-)-nicotine and values were expressed as a percentage of total binding.

Row | SMILES | Ki
1 | CN1CCC[C@H]1c1cc2nc(Cl)c(Cl)cc2o1.Cl [Example 26, 5,6-Dichloro-2-(1-methyl-2-(S)-pyrrolidinyl)furo[3,2-b]pyridine hydrochloride] | 0.66 nM
2 | Brc1ccc2oc([C@@H]3CCCN3)cc2n1.Cl [Example 28, 5-bromo-2-(2-(S)-parrolidinvy)-furo[3,2-b]pyridine hydrochloride] | 4.8 nM
3 | Cc1ccc2oc([C@H]3CCCN3)cc2n1.Cl [Example 29, 5-methyl-2-(2-(R)-pyrrolidinyl)-furo[3,2-b]pyridine hydrochloride] | 6.8 nM
4 | Clc1cnc2cc([C@H]3CCCN3)oc2c1 [Example 31, 6-chloro-2-(2-(R)-pyrrolidinyl)-furo[3,2-b]pyridine hydrochloride] | 9.8 nM
5 | Clc1ccc2oc([C@H]3CCCN3)cc2n1 [Example 35, 5-chloro-2-(2-(R)-pyrrolidinyl)-furo[3,2-b]pyridine hydrochloride] | 1.1 nM
6 | Cl.Clc1cc2oc(C34CCCN3CCC4)cc2nc1Cl [Example 38, 2-(Hexahydro-1H-7a-pyrrolizinyl)-5,6-dichlorofuro[3,2-b]pyridine hydrochloride] | 0.33 nM
7 | Cl.Clc1cc2oc([C@H]3CCCN3)cc2nc1Cl [Example 39, 5,6-Dichloro-2-(2-(R)-pyrrolidinyl)furo[3,2-b]pyridine hydrochloride] | 1.1 nM
8 | CN1[C@@H]2CC[C@@H](C2)[C@H]1c1cc2ncccc2o1 [Example 42, 2-((1R,4S)-2-aza-3-(S)-bicyclo[2.2.1]heptyl)-2-methylfuro[3,2-b]pyridil dihydrochloride] | 4.7 nM
9 | CN1CCC[C@H]1c1cc2nc(Cl)c(Br)cc2o1.Cl.Cl [Example 48, 6-bromo-5-chloro-2-(1-methyl-2-(S)-pyrrolidinyl)furo[3,2-b]pyridine dihydrochloride] | 1.3 nM

Same assay, conditions: Table 2; [3H]-cytisine binding; read-out: Binding

Row | SMILES | Ki
10 | Clc1nc2cc([C@H]3CCCN3)oc2cc1-c1ccccc1 [Example 55, 2-(2-(R)-pyrrolidinyl)-5-chloro-6-phenyl furo[3,2-b]pyridinehydrochloride] | 0.16 nM
11 | Cl.Nc1cccc(-c2cc3oc([C@H]4CCCN4)cc3nc2Cl)c1 [Example 57, 6-(3-aminophenyl)-5-chloro-2-(2-(R)-pyrrolidinyl)furo[3,2-b]pyridine hydrochloride] | 0.83 nM

Same assay, conditions: Tables 1 and 2

Row | SMILES | in vitro binding (in words)
12 | Clc1nc2cc([C@H]3CCCN3)oc2cc1-c1ccccc1 [Example 55, 2-(2-(R)-pyrrolidinyl)-5-chloro-6-phenyl furo[3,2-b]pyridinehydrochloride] | potent in vitro binding

Same assay, conditions: preferred compounds

Row | SMILES | binding to the nicotinic acetylcholine receptor (in words)
13 | CN1CCC[C@H]1c1cc2nc(Cl)c(Cl)cc2o1.Cl [Example 26, 5,6-Dichloro-2-(1-methyl-2-(S)-pyrrolidinyl)furo[3,2-b]pyridine hydrochloride] | most potent binders
14 | Clc1nc2cc([C@H]3CCCN3)oc2cc1-c1ccccc1 [Example 55, 2-(2-(R)-pyrrolidinyl)-5-chloro-6-phenyl furo[3,2-b]pyridinehydrochloride] | most potent binders

Test system: neuronal nicotinic acetylcholine receptors in IMR-32 cells
Assay: 86Rb+ efflux assay in IMR-32 neuroblastoma cells
Assay type: cell-based, human
Conditions: Table 1; inhibition of efflux elicited by 100 μM (S)-nicotine; 10 μM
Experimental: (§1) B. Protocols for the Determination of Functional Effects of Nicotinic Acetylcholine Receptor Ligands on Synaptic Transmission
Experimental cells were seeded at a density of 500,000 cells/mL into a 24-well tissue culture dish. Plated cells were allowed to proliferate for at least 48 hours before loading with 2 μCi/mL of ^86 Rb^+ (35 Ci/mmol) overnigh at 37° C.

Row | SMILES | IMR-32 % Inhibition @ 10 μM
15 | CN1CCC[C@H]1c1cc2nc(Cl)c(Cl)cc2o1.Cl [Example 26, 5,6-Dichloro-2-(1-methyl-2-(S)-pyrrolidinyl)furo[3,2-b]pyridine hydrochloride] | 38%
16 | Cc1ccc2oc([C@H]3CCCN3)cc2n1.Cl [Example 29, 5-methyl-2-(2-(R)-pyrrolidinyl)-furo[3,2-b]pyridine hydrochloride] | 0%
17 | Brc1ccc2oc([C@H]3CCCN3)cc2n1 [Example 33, 5-bromo-2-(2-(R)-pyrrolidinyl)-furo[3,2-b]pyridine hydrochloride] | 8%
18 | Cl.Clc1cc2oc(C34CCCN3CCC4)cc2nc1Cl [Example 38, 2-(Hexahydro-1H-7a-pyrrolizinyl)-5,6-dichlorofuro[3,2-b]pyridine hydrochloride] | 10%
19 | Cl.Clc1cc2oc([C@H]3CCCN3)cc2nc1Cl [Example 39, 5,6-Dichloro-2-(2-(R)-pyrrolidinyl)furo[3,2-b]pyridine hydrochloride] | 25%
20 | CN1CCC[C@H]1c1cc2nc(Cl)c(Br)cc2o1.Cl.Cl [Example 48, 6-bromo-5-chloro-2-(1-methyl-2-(S)-pyrrolidinyl)furo[3,2-b]pyridine dihydrochloride] | 0%

Same assay, conditions: Table 1; maximal response, percent relative to 100 μM (S)-nicotine

Row | SMILES | IMR-32 % max
21 | CN1CCC[C@H]1c1cc2nc(Cl)c(Cl)cc2o1.Cl [Example 26, 5,6-Dichloro-2-(1-methyl-2-(S)-pyrrolidinyl)furo[3,2-b]pyridine hydrochloride] | 7%
22 | Brc1ccc2oc([C@H]3CCCN3)cc2n1 [Example 33, 5-bromo-2-(2-(R)-pyrrolidinyl)-furo[3,2-b]pyridine hydrochloride] | 0%
23 | Cl.Clc1cc2oc(C34CCCN3CCC4)cc2nc1Cl [Example 38, 2-(Hexahydro-1H-7a-pyrrolizinyl)-5,6-dichlorofuro[3,2-b]pyridine hydrochloride] | 12%
24 | Cl.Clc1cc2oc([C@H]3CCCN3)cc2nc1Cl [Example 39, 5,6-Dichloro-2-(2-(R)-pyrrolidinyl)furo[3,2-b]pyridine hydrochloride] | 4%
25 | CN1[C@@H]2CC[C@@H](C2)[C@H]1c1cc2ncccc2o1 [Example 42, 2-((1R,4S)-2-aza-3-(S)-bicyclo[2.2.1]heptyl)-2-methylfuro[3,2-b]pyridil dihydrochloride] | 24%
26 | CN1CCC[C@H]1c1cc2nc(Cl)c(Br)cc2o1.Cl.Cl [Example 48, 6-bromo-5-chloro-2-(1-methyl-2-(S)-pyrrolidinyl)furo[3,2-b]pyridine dihydrochloride] | 6%

Same assay, conditions: Table 2; maximal response, percent relative to 100 μM (S)-nicotine

Row | SMILES | IMR-32 % max
27 | Clc1nc2cc([C@H]3CCCN3)oc2cc1-c1ccccc1 [Example 55, 2-(2-(R)-pyrrolidinyl)-5-chloro-6-phenyl furo[3,2-b]pyridinehydrochloride] | 32%
28 | Cl.Nc1cccc(-c2cc3oc([C@H]4CCCN4)cc3nc2Cl)c1 [Example 57, 6-(3-aminophenyl)-5-chloro-2-(2-(R)-pyrrolidinyl)furo[3,2-b]pyridine hydrochloride] | 22%

Molecular target: T1, α4 and β2 nicotinic acetylcholine subunits (K177 cells) (Homo sapiens, UniProt P17787+P43681)
T1 construct: expressed in transfected cells
Assay: 86Rb+ efflux assay in K177 cells (HEK 293 stably transfected with α4 and β2 nicotinic acetylcholine subunits)
Assay type: cell-based
Conditions: K177; Table 1; inhibition of efflux elicited by 100 μM (S)-nicotine; 10 μM; read-out: K177 % Inhibition @ 10 μM
Experimental: as §1
Cells of the IMR-32 human neuroblastoma clonal cell line (ATCC, Rockville, Md.) were maintained in a log phase of growth according to established procedures (Lukas, R. J., J. Pharmacol. Exp. Ther., 265: 294-302, 1993). Experimental cells were seeded at a density of 500,000 cells/mL into a 24-well tissue culture dish. Plated cells were allowed to proliferate for at least 48 hours before loading with 2 μCi/mL of ^86 Rb^+ (35 Ci/mmol) overnigh at 37° C. The ^86 Rb^+ efflux assays were performed according to previously published protocols (Lukas, 1993) except serum-free Dulbecco's Modified Eagle's Medium was used during the ^86 Rb^+ loading, rinsing, and agonist-induced efflux steps.
Cells of the K177 cell line, resulting from stable transfection of the human embryonic kidney (HEK) 293 cell line with the cDNA of the α4 and β2 nicotinic acetylcholine subunits (Gopalakrishnan, et al, J. Pharmacol. Expt. Ther. 1996, 276, 289-297), were maintained in a log phase of growth according to established procedures (Gopalakrishnan, et al., loc. cit.). The cells were plated onto poly-lysine coated 24-well Costar plates (Cambridge, Mass.) at a density of 250,000 cells/well. When confluent, the cells were loaded with ^86 Rb^+ and agonist-induced efflux was assessed as reported above for IMR-32 cells.
Maximal responses (reported as percent relative to the response elicited by 100 μM (S)-nicotine) are shown for selected compounds of the invention. The inhibition data (given for other selected compounds) reflect inhibition of the efflux elicited by 100 μM (S)-nicotine at the indicated concentration. […] This finding is in agreement with the results of others who have linked dopamine release, which is dependent upon the ion flux in synaptic transmission, to binding at nicotinic receptors (cf., for example, Lippiello and Caldwell, U.S. Pat. No. 5,242,935, issued Sept. 7, 1993; Caldwell and Lippielo, U.S. Pat. No. 5,248,690, issued Sept. 28, 1993; and Wonnacott et al., Prog. Brain Res; 79: 157-163 (1989)).

T1 sequence (P43681 29-627 limits assumed): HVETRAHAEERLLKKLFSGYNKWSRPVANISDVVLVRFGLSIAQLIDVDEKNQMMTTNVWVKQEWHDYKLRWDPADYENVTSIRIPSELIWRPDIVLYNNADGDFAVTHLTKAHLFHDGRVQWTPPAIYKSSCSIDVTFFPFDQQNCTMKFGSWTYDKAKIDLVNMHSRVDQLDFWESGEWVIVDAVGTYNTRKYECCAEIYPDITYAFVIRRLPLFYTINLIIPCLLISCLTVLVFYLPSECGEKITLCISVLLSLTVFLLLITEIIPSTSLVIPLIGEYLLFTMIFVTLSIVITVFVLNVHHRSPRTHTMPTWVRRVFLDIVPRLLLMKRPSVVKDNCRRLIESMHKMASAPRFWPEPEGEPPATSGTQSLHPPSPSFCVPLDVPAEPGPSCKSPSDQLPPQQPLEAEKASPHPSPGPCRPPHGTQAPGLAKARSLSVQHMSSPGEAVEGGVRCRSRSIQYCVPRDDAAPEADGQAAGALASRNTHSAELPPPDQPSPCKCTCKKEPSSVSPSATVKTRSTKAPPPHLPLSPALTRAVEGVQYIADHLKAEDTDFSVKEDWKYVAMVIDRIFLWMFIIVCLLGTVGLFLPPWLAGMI
T1 sequence (P17787 26-502): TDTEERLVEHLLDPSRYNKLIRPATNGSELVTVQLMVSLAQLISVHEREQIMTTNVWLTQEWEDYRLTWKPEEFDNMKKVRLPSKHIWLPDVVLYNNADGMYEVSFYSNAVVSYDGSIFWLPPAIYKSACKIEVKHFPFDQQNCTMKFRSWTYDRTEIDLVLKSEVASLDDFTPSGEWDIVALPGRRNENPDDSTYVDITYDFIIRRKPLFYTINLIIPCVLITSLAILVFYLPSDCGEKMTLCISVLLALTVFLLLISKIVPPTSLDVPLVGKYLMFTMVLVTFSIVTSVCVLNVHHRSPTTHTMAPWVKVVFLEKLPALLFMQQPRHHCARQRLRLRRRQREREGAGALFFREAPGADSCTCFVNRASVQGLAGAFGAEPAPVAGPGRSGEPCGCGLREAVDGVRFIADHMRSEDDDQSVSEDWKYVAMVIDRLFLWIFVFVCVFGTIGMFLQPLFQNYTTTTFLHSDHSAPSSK

Row | SMILES | inhibition at 10 µM
29 | CN1CCC[C@H]1c1cc2nc(Cl)c(Cl)cc2o1.Cl [Example 26, 5,6-Dichloro-2-(1-methyl-2-(S)-pyrrolidinyl)furo[3,2-b]pyridine hydrochloride] | 53%
30 | Cc1ccc2oc([C@H]3CCCN3)cc2n1.Cl [Example 29, 5-methyl-2-(2-(R)-pyrrolidinyl)-furo[3,2-b]pyridine hydrochloride] | 28%
31 | Clc1cnc2cc([C@H]3CCCN3)oc2c1 [Example 31, 6-chloro-2-(2-(R)-pyrrolidinyl)-furo[3,2-b]pyridine hydrochloride] | 41%

Same assay, conditions: K177; Table 1; maximal response, percent relative to 100 μM (S)-nicotine; read-out: K177 % max

Row | SMILES | Emax
32 | CN1CCC[C@H]1c1cc2nc(Cl)c(Cl)cc2o1.Cl [Example 26, 5,6-Dichloro-2-(1-methyl-2-(S)-pyrrolidinyl)furo[3,2-b]pyridine hydrochloride] | 6%
33 | Cc1ccc2oc([C@H]3CCCN3)cc2n1.Cl [Example 29, 5-methyl-2-(2-(R)-pyrrolidinyl)-furo[3,2-b]pyridine hydrochloride] | 0%
34 | Clc1cnc2cc([C@H]3CCCN3)oc2c1 [Example 31, 6-chloro-2-(2-(R)-pyrrolidinyl)-furo[3,2-b]pyridine hydrochloride] | 13%
35 | Brc1ccc2oc([C@H]3CCCN3)cc2n1 [Example 33, 5-bromo-2-(2-(R)-pyrrolidinyl)-furo[3,2-b]pyridine hydrochloride] | 0%
36 | Clc1ccc2oc([C@H]3CCCN3)cc2n1 [Example 35, 5-chloro-2-(2-(R)-pyrrolidinyl)-furo[3,2-b]pyridine hydrochloride] | 61%
37 | Cl.Clc1cc2oc(C34CCCN3CCC4)cc2nc1Cl [Example 38, 2-(Hexahydro-1H-7a-pyrrolizinyl)-5,6-dichlorofuro[3,2-b]pyridine hydrochloride] | 0%
38 | Cl.Clc1cc2oc([C@H]3CCCN3)cc2nc1Cl [Example 39, 5,6-Dichloro-2-(2-(R)-pyrrolidinyl)furo[3,2-b]pyridine hydrochloride] | 39%
39 | CN1[C@@H]2CC[C@@H](C2)[C@H]1c1cc2ncccc2o1 [Example 42, 2-((1R,4S)-2-aza-3-(S)-bicyclo[2.2.1]heptyl)-2-methylfuro[3,2-b]pyridil dihydrochloride] | 29%
40 | CN1CCC[C@H]1c1cc2nc(Cl)c(Br)cc2o1.Cl.Cl [Example 48, 6-bromo-5-chloro-2-(1-methyl-2-(S)-pyrrolidinyl)furo[3,2-b]pyridine dihydrochloride] | 0%

Same assay, conditions: Table 1; maximal response, percent relative to 100 μM (S)-nicotine

Row | SMILES | K177 % max
41 | Brc1ccc2oc([C@@H]3CCCN3)cc2n1.Cl [Example 28, 5-bromo-2-(2-(S)-parrolidinvy)-furo[3,2-b]pyridine hydrochloride] | 20%
